According to patent US6979686B1, “Substituted pyrazoles as p38 kinase inhibitors” (Pharmacia Corporation, priority 2001, dated 2005):

biological target: T1, human p38 kinase alpha (Homo sapiens, UniProt Q16539); assay: p38 kinase in vitro assay, phosphorylation of biotinylated PHAS-I with 32P-ATP; type: biochemical; conditions: @ 1.0 uM
T1 construct: GST (N, cleaved yes); made in house; host or cells: E. coli DH10B
T1 sequence (Q16539 whole entry): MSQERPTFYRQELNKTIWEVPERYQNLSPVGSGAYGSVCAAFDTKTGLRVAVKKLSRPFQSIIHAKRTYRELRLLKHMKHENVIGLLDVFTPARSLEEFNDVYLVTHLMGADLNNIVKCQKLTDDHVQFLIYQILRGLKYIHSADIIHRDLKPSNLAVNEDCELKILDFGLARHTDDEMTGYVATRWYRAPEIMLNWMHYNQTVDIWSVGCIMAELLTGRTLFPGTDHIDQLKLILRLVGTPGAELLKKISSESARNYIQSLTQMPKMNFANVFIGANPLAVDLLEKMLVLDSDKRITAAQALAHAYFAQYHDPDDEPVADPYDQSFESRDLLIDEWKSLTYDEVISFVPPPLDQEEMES

Compound	P38 alpha kinase % inhib @ conc. [% @]	P38 alpha kinase % inhib @ conc. (uM) [% @]
O=C(Cc1cccs1)NCCCc1[nH]nc(-c2ccc(F)cc2)c1-c1ccncc1 [Example B-1228]	90.0	
O=S(=O)(NCCc1[nH]nc(-c2ccc(F)cc2)c1-c1ccncc1)C(F)(F)F [Example B-1019]		82.0
CC(C)NC(=O)NCCc1[nH]nc(-c2ccc(F)cc2)c1-c1ccncc1 [Example B-1029]		69.0
CCOC(=O)NCCCc1[nH]nc(-c2ccc(F)cc2)c1-c1ccncc1 [Example B-1231]	94.0	
O=C(NCCc1[nH]nc(-c2ccc(F)cc2)c1-c1ccncc1)C1CCCC1 [Example B-1004]		79.0
O=C(NCCCc1[nH]nc(-c2ccc(F)cc2)c1-c1ccncc1)NCCc1ccccc1 [Example B-1221]	82.0	
CCCS(=O)(=O)NCCCc1[nH]nc(-c2ccc(F)cc2)c1-c1ccncc1 [Example B-1198]	92.0	
CCS(=O)(=O)NCCc1[nH]nc(-c2ccc(F)cc2)c1-c1ccncc1 [Example B-1023]		93.0
CCS(=O)(=O)NCCCc1[nH]nc(-c2ccc(F)cc2)c1-c1ccncc1 [Example B-1200]	95.0	
COCC(=O)NCCc1[nH]nc(-c2ccc(F)cc2)c1-c1ccncc1 [Example B-0994]		55.0
O=S(=O)(Cc1ccccc1)NCCc1[nH]nc(-c2ccc(F)cc2)c1-c1ccncc1 [Example B-1017]		96.0
C=CCOC(=O)NCCc1[nH]nc(-c2ccc(F)cc2)c1-c1ccncc1 [Example B-0985]		86.0
Cc1ccc(C(=O)NCCc2[nH]nc(-c3ccc(F)cc3)c2-c2ccncc2)cc1 [Example B-1002]		70.0
O=C(NCCCc1[nH]nc(-c2ccc(F)cc2)c1-c1ccncc1)c1ccncc1 [Example B-1183]		77.0
CCN(CC)C(=O)NCCCc1[nH]nc(-c2ccc(F)cc2)c1-c1ccncc1 [Example B-1225]	89.0	

same assay, conditions: @ 1.0 uM; read-out: P38 alpha kinase % inhib @ conc.

Compound	inhibition at 1 µM [%]
COc1ccc(C(=O)NCc2[nH]nc(-c3ccc(F)cc3)c2-c2ccncc2)cc1 [Example B-0039]	89

same assay, conditions: @ 10.0 uM

Compound	P38 alpha kinase % inhib @ conc. [% @]	P38 alpha kinase IC50, uM or % inhib @ conc. (uM): % inhib [% @]
CCCC(=O)COC(=O)NCc1[nH]nc(-c2ccc(F)cc2)c1-c1ccncc1 [Example B-0177]	70.0	
CCCCNS(=O)(=O)c1cccc(NC(=O)Cn2nc(-c3ccc(F)cc3)c(-c3ccncc3)c2C)c1 [Example B-2440]		77.0
Cc1c(-c2ccncc2)c(-c2ccc(F)cc2)nn1CC(=O)Nc1cccc(F)c1 [Example B-2429]		92.0
CCOC(=O)N1CCC(NC(=O)Cn2nc(-c3ccc(F)cc3)c(-c3ccncc3)c2C)CC1 [Example B-2329]	72.0	
Cc1c(-c2ccncc2)c(-c2ccc(F)cc2)nn1CC(=O)Nc1ccccc1C(=O)NC(C)c1ccccc1 (stereo not drawn) [Example B-2456]		86.0

same assay, conditions: @ 100.0 uM

Compound	P38 alpha kinase IC50, uM or % inhib @ conc. (uM): % inhib [% @]
Cc1c(-c2ccncc2)c(-c2ccc(F)cc2)nn1CC(=O)N(CCC#N)CC1CCCO1 (stereo not drawn) [Example B-2404]	58

same assay, conditions: Table 8; 1% DMSO; read-out: p38α Kinase Assay IC50

Compound	IC50 [nM]
COC(=O)N1CCN(c2[nH]nc(-c3ccc(Cl)cc3)c2-c2ccncc2)CC1 [Example A-319, methyl 4-[5-(4-chlorophenyl)-4-(4-pyridinyl)-1H-pyrazol-3-yl]-1-piperazinecarboxylate, monohydrate]	6060

same assay, conditions: activated human p38 kinase alpha, PHAS-I substrate, 50 μM unlabeled ATP; read-out: p38 kinase IC50

Compound	IC50 [nM]
Cc1cccc(-c2n[nH]c(-c3cccc(C)c3)c2-c2ccncc2)c1 [Example A-28]	300
Cc1[nH]nc(-c2cccc(F)c2C)c1-c1ccncc1 [Example A-33]	2500
Cc1[nH]nc(-c2cccc(C(F)(F)F)c2)c1-c1ccncc1 [Example A-42]	300

same assay, conditions: in vitro P38-alpha kinase inhibition; read-out: P38 alpha kinase IC50

Compound	IC50 [nM]
CC(NS(=O)(=O)Cc1ccccc1[N+](=O)[O-])c1[nH]nc(-c2ccc(F)cc2)c1-c1ccncc1 (stereo not drawn) [Example B-0619]	< 100
O=S(=O)(NC(Cc1ccccc1)c1[nH]nc(-c2ccc(F)cc2)c1-c1ccncc1)c1ccc(F)cc1F (stereo not drawn) [Example B-0712]	2900
Cc1noc(C)c1C(=O)NCCc1[nH]nc(-c2ccc(F)cc2)c1-c1ccncc1 [Example B-1157]	260
O=S(=O)(NC(Cc1ccccc1)c1[nH]nc(-c2ccc(F)cc2)c1-c1ccncc1)C(F)(F)F (stereo not drawn) [Example B-0713]	4300
CCCOC(=O)NC(C)c1[nH]nc(-c2ccc(F)cc2)c1-c1ccncc1 (stereo not drawn) [Example B-0602]	970
O=C(NCCc1[nH]nc(-c2ccc(F)cc2)c1-c1ccncc1)c1c(F)ccc(F)c1F [Example B-1131]	76
N#Cc1ccccc1S(=O)(=O)NCCc1[nH]nc(-c2ccc(F)cc2)c1-c1ccncc1 [Example B-1078]	260
O=S(=O)(NC(Cc1ccccc1)c1[nH]nc(-c2ccc(F)cc2)c1-c1ccncc1)C(F)(F)F (stereo not drawn) [Example B-0758]	1500
O=C(NC(Cc1ccccc1)c1[nH]nc(-c2ccc(F)cc2)c1-c1ccncc1)c1ccncc1 (stereo not drawn) [Example B-0822]	1330
CNC(=O)CCC(NC(=O)c1ccc(F)cc1)c1[nH]nc(-c2ccc(F)cc2)c1-c1ccncc1 (stereo not drawn) [Example B-0862]	2150
CC(NC(=O)c1cccc(Cl)c1)c1[nH]nc(-c2ccc(F)cc2)c1-c1ccncc1 (stereo not drawn) [Example B-0702]	36
O=C(NCCc1[nH]nc(-c2ccc(F)cc2)c1-c1ccncc1)c1ccc(Cl)cc1Cl [Example B-1144]	440
CC(NS(=O)(=O)c1ccccc1Br)c1[nH]nc(-c2ccc(F)cc2)c1-c1ccncc1 (stereo not drawn) [Example B-0631]	65
CC(NS(=O)(=O)c1c(Cl)cccc1Cl)c1[nH]nc(-c2ccc(F)cc2)c1-c1ccncc1 (stereo not drawn) [Example B-0630]	60
CC(C)OC(=O)NC(C)c1[nH]nc(-c2ccc(F)cc2)c1-c1ccncc1 (stereo not drawn) [Example B-0606]	170
O=S(=O)(NCCc1[nH]nc(-c2ccc(F)cc2)c1-c1ccncc1)c1ccc(-c2ccccc2)cc1 [Example B-1109]	54
Cc1cccc(C)c1NC(=O)NC(C)c1[nH]nc(-c2ccc(F)cc2)c1-c1ccncc1 (stereo not drawn) [Example B-0588]	12800
COc1ccc(C)cc1S(=O)(=O)NCCc1[nH]nc(-c2ccc(F)cc2)c1-c1ccncc1 [Example B-1098]	< 100
CC(NC(=O)N1CCOCC1)c1[nH]nc(-c2ccc(F)cc2)c1-c1ccncc1 (stereo not drawn) [Example B-0582]	1030
Cc1ccc(F)cc1S(=O)(=O)NCCc1[nH]nc(-c2ccc(F)cc2)c1-c1ccncc1 [Example B-1079]	< 100
O=C(NC(Cc1ccccc1)c1[nH]nc(-c2ccc(F)cc2)c1-c1ccncc1)c1ccno1 (stereo not drawn) [Example B-0840]	630
CC(NC(=O)C1CCCN1)c1[nH]nc(-c2ccc(F)cc2)c1-c1ccncc1 (stereo not drawn) [Example B-0604]	300
Cc1ccc(C)c(S(=O)(=O)NC(C)c2[nH]nc(-c3ccc(F)cc3)c2-c2ccncc2)c1 (stereo not drawn) [Example B-0645]	580
COc1ccc(C)cc1S(=O)(=O)NC(C)c1[nH]nc(-c2ccc(F)cc2)c1-c1ccncc1 (stereo not drawn) [Example B-0647]	1610
O=S(=O)(NC(Cc1ccccc1)c1[nH]nc(-c2ccc(F)cc2)c1-c1ccncc1)c1cccs1 (stereo not drawn) [Example B-0720]	1300
CC(NS(=O)(=O)c1ccc(Br)cc1)c1[nH]nc(-c2ccc(F)cc2)c1-c1ccncc1 (stereo not drawn) [Example B-0609]	< 100

same assay, conditions: in vitro P38-alpha kinase; read-out: P38 alpha kinase IC50

Compound	IC50 [nM]
O=C(c1ccc(C(F)(F)F)cc1)N1CCC(c2[nH]nc(-c3ccc(F)cc3)c2-c2ccncc2)CC1 [Example B-1390]	< 100
O=C(NCCCc1[nH]nc(-c2ccc(F)cc2)c1-c1ccncc1)c1ccc(F)cc1F [Example B-1353]	62
O=S(=O)(c1ccccc1)c1ccc(S(=O)(=O)N2CCC(c3[nH]nc(-c4ccc(F)cc4)c3-c3ccncc3)CC2)s1 [Example B-1441]	1950
O=C(NCCCc1[nH]nc(-c2ccc(F)cc2)c1-c1ccncc1)c1cccc(Cl)c1Cl [Example B-1333]	450
CCc1ccc(S(=O)(=O)NCCCc2[nH]nc(-c3ccc(F)cc3)c2-c2ccncc2)cc1 [Example B-1265]	430
O=C(NCCCc1[nH]nc(-c2ccc(F)cc2)c1-c1ccncc1)c1ccc(Cl)cc1 [Example B-1322]	120
O=S(=O)(c1ccc(-c2ccccn2)s1)N1CCC(c2[nH]nc(-c3ccc(F)cc3)c2-c2ccncc2)CC1 [Example B-1439]	1700
O=C(NCCCc1[nH]nc(-c2ccc(F)cc2)c1-c1ccncc1)c1ccc(F)c(C(F)(F)F)c1 [Example B-1341]	420
O=S(=O)(NCCCc1[nH]nc(-c2ccc(F)cc2)c1-c1ccncc1)c1ccc(Cl)s1 [Example B-1278]	120
CCOC(=O)N1CCC(c2[nH]nc(-c3ccc(F)cc3)c2-c2ccncc2)CC1 [Example B-1422]	580
COc1ccc(Br)cc1S(=O)(=O)NCc1[nH]nc(-c2ccc(F)cc2)c1-c1ccncc1 [Example B-0249]	< 100
COC(=O)CCCNC(=O)Cn1nc(-c2ccc(F)cc2)c(-c2ccncc2)c1C [Example B-2295]	1790
O=S(=O)(c1ccc(OC(F)(F)F)cc1)N1CCC(c2[nH]nc(-c3ccc(F)cc3)c2-c2ccncc2)CC1 [Example B-1477]	2500
O=S(=O)(Cc1ccccc1)N1CCC(c2[nH]nc(-c3ccc(F)cc3)c2-c2ccncc2)CC1 [Example B-1374]	< 100
CS(=O)(=O)c1ccccc1S(=O)(=O)N1CCC(c2[nH]nc(-c3ccc(F)cc3)c2-c2ccncc2)CC1 [Example B-1462]	220
Cc1c(C)c(S(=O)(=O)NCCCc2[nH]nc(-c3ccc(F)cc3)c2-c2ccncc2)c(C)c2c1OC(C)(C)CC2 [Example B-1287]	250
COc1cc(CNC(=O)Cn2nc(-c3ccc(F)cc3)c(-c3ccncc3)c2C)cc(OC)c1 [Example B-2305]	540
